Source: US12285407B2, “Bis-indolylmethane derivatives and uses thereof” (The University of The West Indies, priority 2018, dated 2025)
Values after ≈ are worked out from the molar mass of the structure shown. Where two headings read alike, the source gives them in different places.

Experiments:
Escherichia coli O157:H7 = experiment: Rescue concentrations of SP-BIM that reactivate antibiotic; format: cell-based; conditions: Escherichia coli
MRSA = experiment: Adjuvant broth microdilution (antibiotic MIC with SP-BIM at 50 μg/mL); format: cell-based, Staphylococcus aureus; conditions: Staphylococcus aureus, antibiotic alone, Table 4, read-out: MIC of antibiotic, No compound
Escherichia coli [1] = experiment: microbe, parasite or virus in culture; format: cell-based; conditions: read-out: MIC of antibiotic, No compound
Klebsiella pneumoniae [2] = experiment: Adjuvant broth microdilution (antibiotic MIC with SP-BIM at 50 μg/mL); format: cell-based; conditions: Klebsiella pneumoniae; antibiotic alone; Table 7; read-out: MIC of antibiotic, No compound
Staphylococcus aureus = experiment: Checkerboard synergy (FICI) of antibiotics with SP-BIM; format: cell-based; conditions: Staphylococcus aureus, Staphylococcus aureus; for MIC: 24 h, antibiotic alone, read-out: MIC antibiotic only
Streptococcus pneumoniae = experiment: as above; format: cell-based; conditions: for MIC: 24 h, antibiotic alone, read-out: MIC antibiotic only
Bacillus cereus = experiment: as above; format: cell-based; conditions: for MIC: 24 h, antibiotic alone, read-out: MIC antibiotic only
Enterococcus faecium = experiment: as above; format: cell-based; conditions: Enterococcus faecium, Enterococcus faecium; for MIC: 24 h, antibiotic alone, read-out: MIC antibiotic only
Klebsiella pneumoniae [3] = experiment: as above; format: cell-based; conditions: for MIC: 24 h, antibiotic alone, read-out: MIC antibiotic only
Escherichia coli [4] = experiment: as above; set-up: MIC SP-BIM 13 only / MIC in combination: Antibiotic: unit not given beside the values; conditions: for MIC: 24 h
Candida albicans = experiment: as above; set-up: MIC SP-BIM 13 only / MIC in combination: Antibiotic / MIC antibiotic only: unit not given beside the values
[5] = SP-BIM 9 in combination with the labelled antibiotic
[6] = SP-BIM 13 in combination with the labelled antibiotic
[7] = antibiotic in combination with SP-BIM 9
[8] = antibiotic in combination with SP-BIM 13
[9] = Streptococcus pneumonia (title: Streptococcus pyogenes), antibiotic + SP-BIM 9
[10] = Streptococcus pneumoniae, antibiotic + SP-BIM 13
[11] = MIC of the antibiotic in combination with SP-BIM 13

Structure (SMILES): Oc1ccc2[nH]cc(C(c3cc(O)c(O)c(O)c3)c3c[nH]c4ccc(O)cc34)c2c1 [SP-BIM 27, 5-(bis(5-hydroxy-1H-indol-3-yl)methyl)benzene-1,2,3-triol]
- MIC (Escherichia coli O157:H7; read-out: MIC of SP-BIM 27): > 250 µg/mL

Structure (SMILES): Oc1ccc2[nH]cc(C(c3cccc(Br)c3)c3c[nH]c4ccc(O)cc34)c2c1 [SP-BIM 28, 3,3′-((3-bromophenyl)methylene)bis(1H-indol-5-ol)]
- MIC (Escherichia coli O157:H7; read-out: MIC SP-BIM 28): 250 µg/mL (≈ 577 µM)

Structure (SMILES): COc1cc(Cc2cnc(N)nc2N)cc(OC)c1OC [Trimethoprim, trimethoprim]
- MIC (MRSA): 250 µg/mL
- MIC (Escherichia coli [1]): 2 µg/mL
- MIC (Klebsiella pneumoniae [2]): 16 µg/mL
- MIC (Staphylococcus aureus; SP-BIM 9 checkerboard): 1 µg/mL
- MIC (Staphylococcus aureus; SP-BIM 13 checkerboard): 1 µg/mL
- FIC of SP-BIM 9 (Staphylococcus aureus; [5]): 0.02
- FIC of SP-BIM 13 (Staphylococcus aureus; [6]): 0.5
- Interpretation (Staphylococcus aureus; antibiotic + SP-BIM 9): Indifferent (Indifferent: FICI>1.0-4.0)
- Σ FIC (Staphylococcus aureus; antibiotic + SP-BIM 9): <2.02
- Interpretation (Staphylococcus aureus; antibiotic + SP-BIM 13): Antagonistic (Antagonistic: FICI≥4.0)
- Σ FIC (Staphylococcus aureus; antibiotic + SP-BIM 13): 4.5
- MIC in combination, Antibiotic (Staphylococcus aureus; [7]): 2.0 µg/mL
- MIC in combination, Antibiotic (Staphylococcus aureus; [8]): 4 µg/mL
- FIC of antibiotic (Staphylococcus aureus; in combination with SP-BIM 9): 2.00
- FIC of antibiotic (Staphylococcus aureus; in combination with SP-BIM 13): 4.0
- FIC of SP-BIM 9 (Streptococcus pneumoniae; Streptococcus pneumonia (title: Streptococcus pyogenes), SP-BIM 9 in combination with the labelled antibiotic): 0.06
- Interpretation (Streptococcus pneumoniae; [9]): Synergy (Synergy: FICI≤0.5)
- Σ FIC (Streptococcus pneumoniae; [9]): <0.31
- MIC in combination, Antibiotic (Streptococcus pneumoniae; Streptococcus pneumonia (title: Streptococcus pyogenes), antibiotic in combination with SP-BIM 9): 8 µg/mL
- FIC of antibiotic (Streptococcus pneumoniae; Streptococcus pneumonia (title: Streptococcus pyogenes), in combination with SP-BIM 9): 0.25
- MIC (Streptococcus pneumoniae; Streptococcus pneumoniae, Streptococcus pneumonia (title: Streptococcus pyogenes), SP-BIM 9 checkerboard): 32 µg/mL
- MIC (Streptococcus pneumoniae; Streptococcus pneumoniae, Streptococcus pneumoniae, SP-BIM 13 checkerboard): 32 µg/mL
- FIC of SP-BIM 13 (Streptococcus pneumoniae; Streptococcus pneumoniae, SP-BIM 13 in combination with the labelled antibiotic): 1.0
- Interpretation (Streptococcus pneumoniae; [10]): Antagonistic (Antagonistic: FICI≥4.0)
- Σ FIC (Streptococcus pneumoniae; [10]): <4.9
- MIC in combination, Antibiotic (Streptococcus pneumoniae; Streptococcus pneumoniae, antibiotic in combination with SP-BIM 13): 125 µg/mL
- FIC of antibiotic (Streptococcus pneumoniae; Streptococcus pneumoniae, in combination with SP-BIM 13): 3.9
- MIC (Bacillus cereus; SP-BIM 9 checkerboard): > 250 µg/mL
- MIC (Bacillus cereus; SP-BIM 13 checkerboard): 250 µg/mL
- MIC in combination, SP-BIM 9 (Bacillus cereus; SP-BIM 9 concentration in combination with the labelled antibiotic): 16 µg/mL
- FIC of SP-BIM 9 (Bacillus cereus; [5]): 0.064
- FIC of SP-BIM 13 (Bacillus cereus; [6]): 1.0
- Interpretation (Bacillus cereus; antibiotic + SP-BIM 9): Synergy (Synergy: FICI≤0.5)
- Σ FIC (Bacillus cereus; antibiotic + SP-BIM 9): <0.1
- Interpretation (Bacillus cereus; antibiotic + SP-BIM 13): Indifferent (Indifferent: FICI>1.0-4.0)
- Σ FIC (Bacillus cereus; antibiotic + SP-BIM 13): 2.0
- MIC in combination, Antibiotic (Bacillus cereus; [7]): 2 µg/mL
- MIC in combination, Antibiotic (Bacillus cereus; [8]): 250 µg/mL
- FIC of antibiotic (Bacillus cereus; in combination with SP-BIM 9): 0.008
- FIC of antibiotic (Bacillus cereus; in combination with SP-BIM 13): 1.00
- MIC (Enterococcus faecium; SP-BIM 9 checkerboard): 4 µg/mL
- MIC (Enterococcus faecium; SP-BIM 13 checkerboard): 4 µg/mL
- FIC of SP-BIM 13 (Enterococcus faecium; [6]): 1.0
- Interpretation (Enterococcus faecium; antibiotic + SP-BIM 13): Antagonistic (Antagonistic: FICI≥4.0)
- Σ FIC (Enterococcus faecium; antibiotic + SP-BIM 13): 5.0
- MIC in combination, Antibiotic (Enterococcus faecium; [8]): 16 µg/mL
- FIC of antibiotic (Enterococcus faecium; in combination with SP-BIM 13): 4.0
- MIC (Klebsiella pneumoniae [3]; SP-BIM 9 checkerboard): 8 µg/mL
- MIC (Klebsiella pneumoniae [3]; SP-BIM 13 checkerboard): 8 µg/mL
- FIC of SP-BIM 9 (Klebsiella pneumoniae [3]; [5]): 0.5
- FIC of SP-BIM 13 (Klebsiella pneumoniae [3]; [6]): 1.0
- Interpretation (Klebsiella pneumoniae [3]; antibiotic + SP-BIM 9): Indifferent (Indifferent: FICI>1.0-4.0)
- Σ FIC (Klebsiella pneumoniae [3]; antibiotic + SP-BIM 9): <1.5
- Interpretation (Klebsiella pneumoniae [3]; antibiotic + SP-BIM 13): Indifferent (Indifferent: FICI>1.0-4.0)
- Σ FIC (Klebsiella pneumoniae [3]; antibiotic + SP-BIM 13): <3.0
- MIC in combination, Antibiotic (Klebsiella pneumoniae [3]; [7]): 8 µg/mL
- MIC in combination, Antibiotic (Klebsiella pneumoniae [3]; [8]): 16 µg/mL
- FIC of antibiotic (Klebsiella pneumoniae [3]; in combination with SP-BIM 9): 1
- FIC of antibiotic (Klebsiella pneumoniae [3]; in combination with SP-BIM 13): 2.0
- MIC (Escherichia coli [4]; read-out: MIC antibiotic only, Escherichia coli, antibiotic alone): 2 µg/mL
- MIC (Escherichia coli [4]; read-out: MIC antibiotic only, Escherichia coli, antibiotic alone, SP-BIM 9 checkerboard): 2 µg/mL
- MIC in combination: Antibiotic (Escherichia coli [4]; [11]): 8
- FIC of SP-BIM 9 (Escherichia coli [4]; [5]): 0.128
- FIC of SP-BIM 13 (Escherichia coli [4]; [6]): 1.0
- Interpretation (Escherichia coli [4]; antibiotic + SP-BIM 9): Antagonistic (Antagonistic: FICI≥4.0)
- Σ FIC (Escherichia coli [4]; antibiotic + SP-BIM 9): <4.1
- Interpretation (Escherichia coli [4]; antibiotic + SP-BIM 13): Antagonistic (Antagonistic: FICI≥4.0)
- Σ FIC (Escherichia coli [4]; antibiotic + SP-BIM 13): <5.0
- MIC in combination, Antibiotic (Escherichia coli [4]; [7]): 8 µg/mL
- FIC of antibiotic (Escherichia coli [4]; combination with SP-BIM 13): 4.0
- FIC of antibiotic (Escherichia coli [4]; in combination with SP-BIM 9): 4
- MIC (Candida albicans; 24 h, read-out: MIC antibiotic only): > 250 µg/mL
- MIC in combination: Antibiotic (Candida albicans; [11]): 250
- FIC of SP-BIM 13 (Candida albicans; [6]): 1.0
- Interpretation (Candida albicans; antibiotic + SP-BIM 13): Indifferent (Indifferent: FICI>1.0-4.0)
- Σ FIC (Candida albicans; antibiotic + SP-BIM 13): <2.0
- FIC of antibiotic (Candida albicans; combination with SP-BIM 13): 1.0
